± gives the expanded uncertainty stated by the source.
Details: Liquid, Transpiration method

In the case of `CC(C)(C)OCc1ccccc1` [ether, benzyl tert-butyl], the “vapor or sublimation pressure” value (277.8 K) is reported as 0.00512 ± 0.00036 kPa, the “vapor or sublimation pressure” value (278.1 K) is reported as 0.00528 ± 0.00037 kPa and the “vapor or sublimation pressure” value (279.1 K) is reported as 0.00577 ± 0.00041 kPa. The “vapor or sublimation pressure” value (281.3 K) was 0.00698 ± 0.00049 kPa, the “vapor or sublimation pressure” value (282.9 K) was 0.00797 ± 0.00056 kPa and the “vapor or sublimation pressure” value (284.3 K) was 0.00893 ± 0.00063 kPa. The “vapor or sublimation pressure” value (286.2 K) was 0.01095 ± 0.00077 kPa, the “vapor or sublimation pressure” value (287.3 K) was 0.01177 ± 0.00082 kPa and the “vapor or sublimation pressure” value (287.8 K) was 0.01209 ± 0.00085 kPa. For the same molecule, the “vapor or sublimation pressure” value (288.2 K) was 0.0131 ± 0.00095 kPa, the “vapor or sublimation pressure” value (290 K) was 0.01485 ± 0.001 kPa and the “vapor or sublimation pressure” value (292.2 K) was 0.0182 ± 0.0013 kPa. For the same molecule, the “vapor or sublimation pressure” value (293 K) was 0.01888 ± 0.0013 kPa, the “vapor or sublimation pressure” value (293.2 K) was 0.01908 ± 0.0013 kPa and the “vapor or sublimation pressure” value (295.2 K) was 0.02312 ± 0.0016 kPa. For the same molecule, the “vapor or sublimation pressure” value (296.2 K) was 0.02445 ± 0.0017 kPa, the “vapor or sublimation pressure” value (297.2 K) was 0.02652 ± 0.0019 kPa and the “vapor or sublimation pressure” value (298 K) was 0.02843 ± 0.002 kPa. For the same molecule, the “vapor or sublimation pressure” value (298.2 K) was 0.02924 ± 0.0021 kPa, the “vapor or sublimation pressure” value (299.2 K) was 0.03085 ± 0.0022 kPa and the “vapor or sublimation pressure” value (300.3 K) was 0.03419 ± 0.0024 kPa. The “vapor or sublimation pressure” value (302.2 K) was 0.03875 ± 0.0027 kPa, the “vapor or sublimation pressure” value (303.1 K) was 0.04177 ± 0.0032 kPa and the “vapor or sublimation pressure” value (303.2 K) was 0.04305 ± 0.0033 kPa. For the same molecule, the “vapor or sublimation pressure” value (308 K) was 0.05754 ± 0.004 kPa.
For `OCc1ccccc1` [benzenemethanol], the “vapor or sublimation pressure” value (282.9 K) was 0.00306 ± 0.00022 kPa, the “vapor or sublimation pressure” value (285.9 K) was 0.00407 ± 0.00029 kPa and the “vapor or sublimation pressure” value (288.9 K) was 0.00532 ± 0.00038 kPa. The “vapor or sublimation pressure” value (292.1 K) was 0.00738 ± 0.00052 kPa, the “vapor or sublimation pressure” value (295.3 K) was 0.00983 ± 0.00069 kPa and the “vapor or sublimation pressure” value (298.2 K) was 0.01251 ± 0.00088 kPa. The “vapor or sublimation pressure” value (301.2 K) was 0.01645 ± 0.0012 kPa, the “vapor or sublimation pressure” value (302.8 K) was 0.01923 ± 0.0014 kPa and the “vapor or sublimation pressure” value (305.8 K) was 0.02541 ± 0.0018 kPa. For the same molecule, the “vapor or sublimation pressure” value (308.8 K) was 0.03192 ± 0.0022 kPa, the “vapor or sublimation pressure” value (311.7 K) was 0.03999 ± 0.0028 kPa and the “vapor or sublimation pressure” value (314.9 K) was 0.05172 ± 0.0036 kPa. For the same molecule, the “vapor or sublimation pressure” value (318.1 K) was 0.06709 ± 0.0047 kPa and the “vapor or sublimation pressure” value (321.1 K) was 0.08348 ± 0.0059 kPa.

From the NIST ThermoML archive (doi:10.1021/je049823k)
